For orientation: IC50 means the concentration that inhibits the measured activity by half.

The structures appear in SMILES notation.

The assay deals with hKIF18A (1-374) (Homo sapiens (Human), UniProt Q8NI77). The assay can be described thus: Inhibition of KIF18A microtubule-dependent ATPase activity (ADP-Glo). The settings on record: KIF18A microtubule-dependent ATPase activity, biochemical assay. For orientation: ADP-Glo turns the ADP formed in a reaction into a luminescent signal.
Sequence of hKIF18A (1-374) (Q8NI77 whole entry, looked up): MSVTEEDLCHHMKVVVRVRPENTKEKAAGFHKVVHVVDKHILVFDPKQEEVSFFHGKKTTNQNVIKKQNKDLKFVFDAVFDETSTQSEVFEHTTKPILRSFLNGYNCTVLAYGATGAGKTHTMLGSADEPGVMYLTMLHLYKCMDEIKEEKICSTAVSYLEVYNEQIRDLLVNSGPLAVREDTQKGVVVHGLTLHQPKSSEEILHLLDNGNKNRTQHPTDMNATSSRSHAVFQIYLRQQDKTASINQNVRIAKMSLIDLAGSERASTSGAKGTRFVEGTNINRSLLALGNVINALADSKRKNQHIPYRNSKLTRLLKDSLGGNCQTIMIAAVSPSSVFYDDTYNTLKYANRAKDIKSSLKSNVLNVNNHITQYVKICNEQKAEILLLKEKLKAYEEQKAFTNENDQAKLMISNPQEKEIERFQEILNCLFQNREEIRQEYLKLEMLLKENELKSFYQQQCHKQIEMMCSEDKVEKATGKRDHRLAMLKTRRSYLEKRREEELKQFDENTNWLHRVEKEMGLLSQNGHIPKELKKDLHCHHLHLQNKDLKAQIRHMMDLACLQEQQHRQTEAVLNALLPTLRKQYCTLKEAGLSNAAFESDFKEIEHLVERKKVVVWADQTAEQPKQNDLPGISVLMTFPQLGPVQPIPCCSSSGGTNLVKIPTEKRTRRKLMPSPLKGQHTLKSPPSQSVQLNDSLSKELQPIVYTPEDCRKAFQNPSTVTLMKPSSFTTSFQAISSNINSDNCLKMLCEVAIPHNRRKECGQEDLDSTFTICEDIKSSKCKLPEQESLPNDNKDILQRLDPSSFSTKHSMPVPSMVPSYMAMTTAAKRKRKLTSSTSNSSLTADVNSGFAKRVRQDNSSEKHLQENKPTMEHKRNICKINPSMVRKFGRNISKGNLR
Sequence of hKIF18A (1-374) (Q2XVP4 whole entry partner, looked up): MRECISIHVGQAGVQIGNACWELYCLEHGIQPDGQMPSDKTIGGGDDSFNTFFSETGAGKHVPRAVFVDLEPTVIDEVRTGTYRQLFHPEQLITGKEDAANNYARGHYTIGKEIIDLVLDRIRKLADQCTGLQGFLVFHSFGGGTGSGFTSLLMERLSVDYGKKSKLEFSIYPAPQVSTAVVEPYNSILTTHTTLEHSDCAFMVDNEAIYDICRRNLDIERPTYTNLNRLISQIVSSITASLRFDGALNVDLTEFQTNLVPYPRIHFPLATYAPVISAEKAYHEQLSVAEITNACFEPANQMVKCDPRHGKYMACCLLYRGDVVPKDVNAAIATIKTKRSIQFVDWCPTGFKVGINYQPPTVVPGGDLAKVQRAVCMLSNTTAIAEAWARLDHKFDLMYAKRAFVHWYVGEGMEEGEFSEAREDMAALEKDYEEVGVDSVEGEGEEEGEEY
Sequence of hKIF18A (1-374) (P02554 whole entry partner, looked up): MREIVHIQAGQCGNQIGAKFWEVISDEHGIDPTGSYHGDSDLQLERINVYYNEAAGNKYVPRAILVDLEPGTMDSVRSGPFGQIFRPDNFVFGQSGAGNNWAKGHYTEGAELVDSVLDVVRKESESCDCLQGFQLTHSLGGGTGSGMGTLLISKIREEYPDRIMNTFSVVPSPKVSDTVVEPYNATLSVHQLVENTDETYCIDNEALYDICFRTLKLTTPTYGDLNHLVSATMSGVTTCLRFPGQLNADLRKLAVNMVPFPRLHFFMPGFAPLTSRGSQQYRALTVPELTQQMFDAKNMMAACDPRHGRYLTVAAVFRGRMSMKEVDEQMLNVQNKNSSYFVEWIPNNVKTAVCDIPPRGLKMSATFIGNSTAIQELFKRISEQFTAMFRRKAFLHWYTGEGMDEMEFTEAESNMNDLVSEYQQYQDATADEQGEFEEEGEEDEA
The compound `CC(C)(C)NS(=O)(=O)c1csc(C(=O)N2CC3(CCC4(CC4)CC3)c3cc(NS(C)(=O)=O)ccc32)c1` [Compound 268, N-(tert-butyl)-5-(5″- (methylsulfonamido)dispiro[cyclopropane-1,1′-cyclohexane-4′,3″-indoline]-1″-carbonyl)thiophene-3-sulfonamide] registered an IC50 of 0.077 µM. With `CS(=O)(=O)Nc1ccc2c(c1)C1(CCC3(CC3)CC1)CN2C(=O)c1cccc([S+]([O-])C2CCCC2)c1` (stereo not drawn) [Compound 270, N-(1″-(3-(cyclopentylsulfinyl)benzoyl)dispiro [cyclopropane-1,1′-cyclohexane-4′,3″- indolin]-5″-yl)methanesulfonamide], 0.11 µM corresponded to half-maximal inhibition (IC50). Regarding `CCS(=O)(=O)Nc1ccc2c(c1)C1(CCC(F)(F)CC1)CN2C(=O)c1cc(S(=O)(=O)N2CC3(CCC3)C2)cs1` [Compound 272, N-(1′-(4-((2-azaspiro[3.3]heptan-2-yl)sulfonyl)thiophene-2-carbonyl)-4,4-difluorospiro[cyclohexane-1,3′-indolin]-5′-yl)ethanesulfonamide], inhibition was half-maximal at 0.038 µM (IC50). The compound `CC(C)(C)NS(=O)(=O)c1cc(C(=O)N2CC3(CCC4(CC4)CC3)c3cc(NS(=O)(=O)CCO)ccc32)cs1` [Compound 274, N-(tert-butyl)-4-(5″-((2-hydroxyethyl)sulfonamido)dispiro [cyclopropane-1,1′-cyclohexane-4′,3″- indoline]-1″-carbonyl)thiophene-2-sulfonamide] gave a 50% inhibitory concentration (IC50) of 0.006 µM. As to `CCS(=O)(=O)Nc1ccc2c(c1)C1(CCC3(CC3)CC1)CN2C(=O)c1csc(S(=O)(=O)NC(C)(C)C)c1` [Compound 275, N-(tert-butyl)-4-(5″- (ethylsulfonamido)dispiro[cyclopropane-1,1′-cyclohexane-4′,3″-indoline]-1″- carbonyl)thiophene-2-sulfonamide], the IC50 worked out at 0.008 µM. As to `CC(C)(C)NS(=O)(=O)c1cc(C(=O)N2CC3(CCC(F)(F)CC3)c3cc(NS(C)(=O)=O)ccc32)cs1` [Compound 277, N-(tert-butyl)-4-(4,4-difluoro-5′-(methylsulfonamido)spiro[cyclohexane-1,3′-indoline]-1′-carbonyl)thiophene-2-sulfonamide], the IC50 is 0.041 µM. On to `CS(=O)(=O)Nc1ccc2c(c1)C1(CCC3(CC3)CC1)CN2C(=O)c1csc(S(=O)(=O)N2CC3(CCC3)C2)c1` [Compound 279, N-(1″-(5-((2-azaspiro[3.3]heptan-2-yl)sulfonyl)thiophene-3-carbonyl)dispiro[cyclopropane-1,1′-cyclohexane-4′,3″-indolin]-5″- yl)methanesulfonamide], for which it took 0.0063 µM to reach half-maximal inhibition (IC50). On to `CS(=O)(=O)Nc1ccc2c(c1)C1(CCC3(CC3)CC1)CN2C(=O)c1csc(S(=O)(=O)N2CCC(F)(F)CC2)c1` [Compound 281, N-(1″-(5-((4,4-difluoropiperidin-1-yl)sulfonyl)thiophene-3-carbonyl)dispiro[cyclopropane-1,1′-cyclohexane-4′,3″-indolin]-5″- yl)methanesulfonamide], for which inhibition was half-maximal at 0.013 µM (IC50). Consider `CS(=O)(=O)Nc1ccc2c(c1)C1(CCC3(CC3)CC1)CN2C(=O)c1csc(S(=O)(=O)N2CC3(CCO3)C2)c1` [Compound 283, N-(1″-(5-((1-oxa-6-azaspiro[3.3]heptan-6-yl)sulfonyl)thiophene-3-carbonyl)dispiro[cyclopropane-1,1′-cyclohexane-4′,3″-indolin]-5″- yl)methanesulfonamide], for which half-maximal inhibition (IC50) required 0.018 µM.

Regarding `CS(=O)(=O)Nc1ccc2c(c1)C1(CCCCC1)CN2C(=O)c1csc(S(=O)(=O)NC2CCC2)c1` [Compound 284, N-cyclobutyl-4-(5′-(methylsulfonamido)spiro[cyclohexane-1,3′-indoline]-1′-carbonyl)thiophene-2-sulfonamide], the IC50 was 0.026 µM. `CC1CCC(NS(=O)(=O)c2cccc(C(=O)N3CC4(CCC5(CC5)CC4)c4cc(NS(C)(=O)=O)ccc43)c2)C1` (stereo not drawn) [Compound 285, N-(3-methylcyclopentyl)-3-(5″- (methylsulfonamido)dispiro[cyclopropane-1,1′-cyclohexane-4′,3″-indoline]-1″-carbonyl)benzenesulfonamide]: the midpoint of inhibition, the IC50, lay at 0.011 µM. Compound `CS(=O)(=O)Nc1ccc2c(c1)C1(CCC3(CC3)CC1)CN2C(=O)c1cccc(S(=N)(=O)C2CCCC2)c1` (stereo not drawn) [Compound 287, N-(1″-(3-(cyclopentanesulfonimidoyl)benzoyl)dispiro[cyclopropane-1,1′-cyclohexane-4′,3″-indolin]-5″- yl)methanesulfonamide] displayed an IC50 of 0.017 µM.

The compound `CC(C)(C)NS(=O)(=O)c1cc(C(=O)N2CC3(CCCCC3)c3cc(NS(=O)(=O)CCO)ccc32)cs1` [Compound 289, N-(tert-butyl)-4-(5′-((2-hydroxyethyl)sulfonamido)spiro [cyclohexane-1,3′-indoline]-1′-carbonyl)thiophene-2-sulfonamide] gave an IC50 of 0.017 µM. The same measure for `CS(=O)(=O)Nc1ccc2c(c1)C1(CCC3(CC3)CC1)CN2C(=O)c1csc(S(=O)(=O)NC2CCC2)c1` [Compound 291, N-cyclobutyl-4-(5″- (methylsulfonamido)dispiro[cyclopropane-1,1′-cyclohexane-4′,3″-indoline]-1″-carbonyl)thiophene-2-sulfonamide]: 0.0058 µM; for `CC(=O)NCCCS(=O)(=O)Nc1ccc2c(c1)C1(CCC3(CC3)CC1)CN2C(=O)c1cccc(S(=O)(=O)NC(C)(C)C)c1` [Compound 292, N-(3-(N-(1″-(3-(N-(tert-butyl)sulfamoyl)benzoyl)dispiro [cyclopropane-1,1′-cyclohexane-4′,3″- indolin]-5″- yl)sulfamoyl)propyl)acetamide]: 0.022 µM. For `CCS(=O)(=O)Nc1ccc2c(c1)C1(CCC3(CC3)CC1)CN2C(=O)c1cccc(S(=O)(=O)NC2CC(F)(F)C2)c1` [Compound 293, N-(3,3-difluorocyclobutyl)-3-(5″- (ethylsulfonamido)dispiro[cyclopropane-1,1′-cyclohexane-4′,3″-indoline]-1″- carbonyl)benzenesulfonamide], the IC50 was 0.017 µM. `CC1=CCC2(CC1)CN(C(=O)c1cccc(S(=O)(=O)NC(C)(C)C)c1)c1ccc(NS(C)(=O)=O)cc12` (stereo not drawn) [Compound 295, N-(tert-butyl)-3-(4-methyl-5′-(methylsulfonamido)spiro[cyclohexane-1,3′-indolin]-3-en-1′-carbonyl)benzenesulfonamide] yielded an IC50 of 0.038 µM. Compound `CC(C)(C)NS(=O)(=O)c1ccc(C(=O)N2CC3(CCC4(CC4)CC3)c3cc(NS(C)(=O)=O)ccc32)o1` [Compound 299, N-(tert-butyl)-5-(5″- (methylsulfonamido)dispiro[cyclopropane-1,1′-cyclohexane-4′,3″-indoline]-1″-carbonyl)furan-2-sulfonamide] yielded an IC50 of 0.014 µM. In turn, `COCCS(=O)(=O)Nc1ccc2c(c1)C1(CCC3(CC3)CC1)CN2C(=O)c1cccc(S(=O)(=O)NC(C)(C)C)c1` [Compound 300, N-(tert-butyl)-3-(5″-((2-methoxyethyl)sulfonamido)dispiro [cyclopropane-1,1′-cyclohexane-4′,3″- indoline]-1″- carbonyl)benzenesulfonamide] displayed an IC50 of 0.031 µM. `CS(=O)(=O)Nc1ccc2c(c1)C1(CCC3(CC3)CC1)CN2C(=O)c1csc(C(O)C2CCCC2)c1` (stereo not drawn) [Compound 301, N-(1″-(5-(cyclopentyl(hydroxy)methyl)thiophene-3-carbonyl)dispiro[cyclopropane-1,1′-cyclohexane-4′,3″-indolin]-5″-yl)methanesulfonamide] gave a half-maximal inhibitory concentration (IC50) of 0.021 µM. The compound `COc1ccc(C(=O)N2CC3(CCC4(CC4)CC3)c3cc(NS(C)(=O)=O)ccc32)cc1S(=O)(=O)N1CC(F)(F)C1` [Compound 302, N-(1″-(3-((3,3-difluoroazetidin-1-yl)sulfonyl)-4-methoxybenzoyl)dispiro[cyclopropane-1,1′-cyclohexane-4′,3″-indolin]-5″- yl)methanesulfonamide] yielded an IC50 of 0.019 µM. With `CS(=O)(=O)Nc1ccc2c(c1)C1(CCC3(CC3)CC1)CN2C(=O)c1ccc(O)c(S(=O)(=O)N2CC(F)(F)C2)c1` [Compound 303, N-(1″-(3-((3,3-difluoroazetidin-1-yl)sulfonyl)-4-hydroxybenzoyl)dispiro[cyclopropane-1,1′-cyclohexane-4′,3″-indolin]-5″-yl)methanesulfonamide], the IC50 worked out at 0.0082 µM.

Take `CS(=O)(=O)Nc1ccc2c(c1)C1(CCC3(CC3)CC1)CN2C(=O)c1cccc(C(O)CC2CCC2)c1` (stereo not drawn) [Compound 305, N-(1″-(3-(2-cyclobutyl-1-hydroxyethyl)benzoyl)dispiro [cyclopropane-1,1′-cyclohexane-4′,3″-indolin]-5″-yl)methanesulfonamide]: 0.0089 µM corresponded to half-maximal inhibition (IC50). The figure for `CS(=O)(=O)Nc1ccc2c(c1)C1(CCC3(CC3)CC1)CN2C(=O)c1cccc(C(F)(F)C2CCCC2)c1` [Compound 306, N-(1″-(3-(cyclopentyldifluoromethyl)benzoyl)dispiro[cyclopropane-1,1′-cyclohexane-4′,3″-indolin]-5″- yl)methanesulfonamide] is 0.033 µM. The same measure for `COc1ccc(C(=O)N2CC3(CCC4(CC4)CC3)c3cc(NS(C)(=O)=O)ccc32)cc1S(=O)(=O)NC12CC(C1)C2` [Compound 311, N-(bicyclo[1.1.1]pentan-1-yl)-2-methoxy-5-(5″-(methylsulfonamido)dispiro[cyclopropane-1,1′-cyclohexane-4′,3″-indoline]-1″- carbonyl)benzenesulfonamide]: 0.0052 µM; for `CS(=O)(=O)Nc1ccc2c(c1)C1(CCC3(CC3)CC1)CN2C(=O)c1cccc(C(O)C2CCC2)c1` (stereo not drawn) [Compound 313, N-(1″-(3-(cyclobutyl(hydroxy)methyl)benzoyl)dispiro[cyclopropane-1,1′-cyclohexane-4′,3″-indolin]-5″- yl)methanesulfonamide]: 0.02 µM; for `CS(=O)(=O)Nc1ccc2c(c1)C1(CCC3(CC3)CC1)CN2C(=O)c1cccc(C(O)CN2CC(F)(F)C2)c1` (stereo not drawn) [Compound 314, N-(1″-(3-(2-(3,3-difluoroazetidin-1-yl)-1-hydroxyethyl)benzoyl)dispiro[cyclopropane-1,1′-cyclohexane-4′,3″-indolin]-5″-yl)methanesulfonamide]: 0.028 µM.

The record behind these values is patent publication US12084420B2, “Indoline compounds for inhibiting KIF18A” (Volastra Therapeutics, Inc., priority 2021, dated 2024).
